Results published in ChEMBL document CHEMBL4033764, “Seeking (and Finding) Biased Ligands of the Kappa Opioid Receptor” (ACS Med Chem Lett, 2017).
pEC50: −log10 of the molar value.

Biological target: Kappa-type opioid receptor (Homo sapiens, UniProt P41145)
Test: Agonist activity at human kappa opioid receptor expressed in CHO cells assessed as beta-arrestin2 recruitment by enzyme fragment complementation method
Assay type: cell-based

Sequence of Kappa-type opioid receptor (P41145 whole entry, the tested form may be a part): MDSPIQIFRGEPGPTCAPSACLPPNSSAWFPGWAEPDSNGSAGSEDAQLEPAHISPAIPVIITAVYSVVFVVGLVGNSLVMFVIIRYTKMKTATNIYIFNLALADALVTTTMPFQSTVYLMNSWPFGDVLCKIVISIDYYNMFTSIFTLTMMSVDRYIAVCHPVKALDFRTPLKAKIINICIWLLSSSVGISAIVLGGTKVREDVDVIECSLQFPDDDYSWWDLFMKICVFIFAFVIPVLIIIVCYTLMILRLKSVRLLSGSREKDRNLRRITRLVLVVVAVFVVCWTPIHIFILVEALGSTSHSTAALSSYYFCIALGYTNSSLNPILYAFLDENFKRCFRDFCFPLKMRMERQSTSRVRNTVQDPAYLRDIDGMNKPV

Compound	pEC50
O=C(Nc1ccc(Cl)c(C(F)(F)F)c1)[C@H]1CC=C[C@H]2CCN(Cc3ccccc3)C(=O)[C@@H]12	< 5.00
Cc1cc(CSc2nnc(-c3ccccn3)n2Cc2ccco2)ccc1C(F)(F)F	5.38
CN(CCc1ccc(Cl)c(Cl)c1)[C@@H]1CCCC[C@H]1N1CCCC1	7.25
